{"source": "patent US8530512B2", "about": "“Broad spectrum gram-positive antimicrobials and anthelmintics with efficacy against drug-resistant strains and Mycobacterium species” (priority 2004, dated 2013)", "key": {"[1]": {"test_system": "Staphylococcus aureus ATCC 29213", "assay": "microbe, parasite or virus in culture", "type": "cell-based", "settings": "for MIC: Staphylococcus aureus, ATCC29213"}, "[2]": {"test_system": "Staphylococcus aureus MRSA MC-1", "assay": "microbe, parasite or virus in culture", "type": "cell-based", "settings": "for MIC: Staphylococcus aureus, MRSA"}, "[3]": {"test_system": "M. smegmatis", "assay": "MIC assay", "type": "cell-based", "settings": "for MIC: Mycolicibacterium smegmatis, read-out: MIC M. smegmatis"}, "[4]": {"test_system": "Mycobacterium avium", "assay": "MIC assay", "type": "cell-based", "settings": "for MIC: Mycobacterium avium, read-out: MIC M. avium"}, "[5]": {"test_system": "Mycobacterium chelonae", "assay": "MIC assay", "type": "cell-based", "settings": "for MIC: read-out: MIC M. chelonae"}, "[6]": {"test_system": "Mycobacterium fortuitum", "assay": "MIC assay", "type": "cell-based", "settings": "for MIC: Mycolicibacterium fortuitum, read-out: MIC M. fortuitum"}, "[7]": {"test_system": "Mycobacterium intracellulare", "assay": "MIC assay", "type": "cell-based", "settings": "for MIC: Mycobacterium intracellulare, read-out: MIC M. intracellulare"}, "[8]": {"test_system": "M. kansasii", "assay": "MIC assay", "type": "cell-based", "settings": "for MIC: Mycobacterium kansasii, read-out: MIC M. kansasii"}, "[9]": {"test_system": "Enterococcus faecium VRE 1", "assay": "organism not typed", "type": "cell-based", "settings": "for MIC E. faecium VRE 1, G+: Table 3; for MIC: read-out: MIC VRE"}, "[10]": {"test_system": "Streptococcus pyogenes", "assay": "microbe, parasite or virus in culture", "type": "cell-based", "settings": "for MIC: Streptococcus pyogenes, per-compound listing, Example 6, read-out: MIC S. pyogenes; for MIC S. pyogenes, G+: Table 3"}, "[11]": {"test_system": "Bacillus cereus", "assay": "microbe, parasite or virus in culture", "type": "cell-based", "settings": "for MIC: Bacillus cereus, per-compound listing, Example 6, read-out: MIC B. cereus; for MIC B. cereus, G+ (anthrax surrogate): Table 3"}, "[12]": {"test_system": "C. elegans", "assay": "motility assay", "type": "in vivo", "parameters": "key to Movement score, 1/1600 / Movement score, 1/800 / Movement score, 1/400 / Movement score, 1/200 / Movement score, 1/100: normal (−); slow (+); very slow (++); not motile/paralyzed (+++)", "settings": "Ive 1 ng/μL in all wells; for Movement score, 1/100: dilution 1/100 of stock (10.24 μg/μL; SK-03-92 1.024 μg/μL); for Movement score, 1/200: dilution 1/200 of stock (10.24 μg/μL; SK-03-92 1.024 μg/μL); for Movement score, 1/400: dilution 1/400 of stock (10.24 μg/μL; SK-03-92 1.024 μg/μL); for Movement score, 1/800: dilution 1/800 of stock (10.24 μg/μL; SK-03-92 1.024 μg/μL); for Movement score, 1/1600: dilution 1/1600 of stock (10.24 μg/μL; SK-03-92 1.024 μg/μL), overnight 20° C."}, "[13]": {"test_system": "C. elegans L1 larvae", "assay": "developmental assay", "type": "in vivo", "parameters": "key to Developmental score, 1/1600 / Developmental score, 1/800 / Developmental score, 1/400 / Developmental score, 1/200 / Developmental score, 1/100: dead (+++); distressed (++); slightly delayed (+); the same as M9-only untreated wells (−)", "settings": "after four days, Ive 1 ng/μL in each well; for Developmental score, 1/100: dilution 1/100; for Developmental score, 1/200: dilution 1/200; for Developmental score, 1/400: dilution 1/400; for Developmental score, 1/800: dilution 1/800; for Developmental score, 1/1600: dilution 1/1600"}, "[14]": {"settings": "Table 6, read-out: MIC S. aureus ATCC 29213"}, "[15]": {"settings": "per-compound listing, Example 6, read-out: MIC S. aureus"}, "[16]": {"settings": "per-compound listing, Example 6"}}, "note": "Where two headings read alike, the source gives them in different places."}
{"smiles": "COc1cc(O)cc(/C=C/c2ccc(O)cc2)c1", "note": "[SK-04-02]", "values": [{"measurement": "MIC", "setting": "[1]; [14]", "result": 32, "unit": "µg/mL"}, {"measurement": "MIC", "setting": "[2]; Table 6, read-out: MIC S. aureus MC-1", "result": 32, "unit": "µg/mL"}, {"measurement": "MIC", "setting": "[3]", "result": 64, "unit": "µg/mL"}, {"measurement": "MIC", "setting": "[4]", "result": 16, "unit": "µg/mL"}, {"measurement": "MIC", "setting": "[5]", "result": 32, "unit": "µg/mL"}, {"measurement": "MIC", "setting": "[6]", "result": 64, "unit": "µg/mL"}, {"measurement": "MIC", "setting": "[7]", "result": 16, "unit": "µg/mL"}, {"measurement": "MIC", "setting": "[8]", "result": 32, "unit": "µg/mL"}]}
{"smiles": "CCOC(=O)/C=C\\Sc1nc2ccccc2s1", "note": "[SK-04-59F]", "values": [{"measurement": "MIC S. aureus ATCC 29213", "setting": "[1]; Table 6", "result": ">512", "unit": "µg/mL"}, {"measurement": "MIC S. aureus MC-1", "setting": "[2]; Table 6", "result": ">512", "unit": "µg/mL"}, {"measurement": "MIC M. smegmatis", "setting": "[3]; Table 6", "result": "16 to 32", "unit": "µg/mL"}, {"measurement": "MIC M. avium", "setting": "[4]; Table 6", "result": 64, "unit": "µg/mL"}, {"measurement": "MIC M. chelonae", "setting": "[5]; Table 6", "result": 8, "unit": "µg/mL"}, {"measurement": "MIC M. fortuitum", "setting": "[6]; Table 6", "result": 16, "unit": "µg/mL"}, {"measurement": "MIC M. intracellulare", "setting": "[7]; Table 6", "result": 16, "unit": "µg/mL"}, {"measurement": "MIC M. kansasii", "setting": "[8]; Table 6", "result": 8, "unit": "µg/mL"}]}
{"smiles": "COc1ccc(O/C=C/c2cc(O)cc(OC)c2)cc1", "note": "[Compound A6, 4-Methoxyphenyl-E-(3-hydroxy-5methoxy)-styryl ether]", "values": [{"measurement": "MIC", "setting": "[1]; [15]", "result": 32, "unit": "µg/mL"}, {"measurement": "MIC", "setting": "[2]; read-out: MIC MRSA", "result": 64, "unit": "µg/mL"}, {"measurement": "MIC E. faecium VRE 1, G+", "setting": "[9]", "result": 64, "unit": "µg/mL"}, {"measurement": "MIC", "setting": "[9]", "result": 64, "unit": "µg/mL"}, {"measurement": "MIC", "setting": "[10]", "result": 32, "unit": "µg/mL"}, {"measurement": "MIC S. pyogenes, G+", "setting": "[10]", "result": 32, "unit": "µg/mL"}, {"measurement": "MIC", "setting": "[11]", "result": 64, "unit": "µg/mL"}, {"measurement": "MIC B. cereus, G+ (anthrax surrogate)", "setting": "[11]", "result": 64, "unit": "µg/mL"}, {"measurement": "MIC", "setting": "[3]; [16]", "result": 128, "unit": "µg/mL"}, {"measurement": "Movement score, 1/100", "setting": "[12]", "result": "+++"}, {"measurement": "Movement score, 1/200", "setting": "[12]", "result": "+++"}, {"measurement": "Movement score, 1/400", "setting": "[12]", "result": "++"}, {"measurement": "Movement score, 1/800", "setting": "[12]", "result": "+"}, {"measurement": "Movement score, 1/1600", "setting": "[12]", "result": "−"}, {"measurement": "Developmental score, 1/100", "setting": "[13]", "result": "+++"}, {"measurement": "Developmental score, 1/200", "setting": "[13]", "result": "+++"}, {"measurement": "Developmental score, 1/400", "setting": "[13]", "result": "+"}, {"measurement": "Developmental score, 1/800", "setting": "[13]", "result": "−"}, {"measurement": "Developmental score, 1/1600", "setting": "[13]", "result": "−"}]}
{"smiles": "COc1cc(O)cc(/C=C/Sc2ccccc2)c1", "note": "[CL-4, Phenyl-E-(3-hydroxy-5methoxy)-styryl thioether]", "values": [{"measurement": "MIC", "setting": "[1]; [15]", "result": 16, "unit": "µg/mL"}, {"measurement": "MIC", "setting": "[2]; read-out: MIC MRSA", "result": 32, "unit": "µg/mL"}, {"measurement": "MIC E. faecium VRE 1, G+", "setting": "[9]", "result": 32, "unit": "µg/mL"}, {"measurement": "MIC", "setting": "[9]", "result": 32, "unit": "µg/mL"}, {"measurement": "MIC", "setting": "[10]", "result": 8, "unit": "µg/mL"}, {"measurement": "MIC S. pyogenes, G+", "setting": "[10]", "result": 8, "unit": "µg/mL"}, {"measurement": "MIC", "setting": "[11]", "result": 16, "unit": "µg/mL"}, {"measurement": "MIC B. cereus, G+ (anthrax surrogate)", "setting": "[11]", "result": 16, "unit": "µg/mL"}, {"measurement": "MIC", "setting": "[3]; [16]", "result": 128, "unit": "µg/mL"}, {"measurement": "Movement score, 1/100", "setting": "[12]", "result": "+++"}, {"measurement": "Movement score, 1/200", "setting": "[12]", "result": "+++"}, {"measurement": "Movement score, 1/400", "setting": "[12]", "result": "++"}, {"measurement": "Movement score, 1/800", "setting": "[12]", "result": "+"}, {"measurement": "Movement score, 1/1600", "setting": "[12]", "result": "−"}, {"measurement": "Developmental score, 1/100", "setting": "[13]", "result": "+++"}, {"measurement": "Developmental score, 1/200", "setting": "[13]", "result": "+++"}, {"measurement": "Developmental score, 1/400", "setting": "[13]", "result": "+++"}, {"measurement": "Developmental score, 1/800", "setting": "[13]", "result": "−"}, {"measurement": "Developmental score, 1/1600", "setting": "[13]", "result": "−"}]}
{"smiles": "N#Cc1cccc(/C=C/SC2=NCCS2)c1", "note": "[SK-04-72]", "values": [{"measurement": "MIC S. aureus ATCC 29213", "setting": "[1]; Table 6", "result": ">512", "unit": "µg/mL"}, {"measurement": "MIC S. aureus MC-1", "setting": "[2]; Table 6", "result": ">512", "unit": "µg/mL"}, {"measurement": "MIC M. smegmatis", "setting": "[3]; Table 6", "result": 64, "unit": "µg/mL"}, {"measurement": "MIC M. avium", "setting": "[4]; Table 6", "result": 64, "unit": "µg/mL"}, {"measurement": "MIC M. chelonae", "setting": "[5]; Table 6", "result": 64, "unit": "µg/mL"}, {"measurement": "MIC M. fortuitum", "setting": "[6]; Table 6", "result": 64, "unit": "µg/mL"}, {"measurement": "MIC M. intracellulare", "setting": "[7]; Table 6", "result": 64, "unit": "µg/mL"}]}
{"smiles": "N#Cc1cccc(/C=C/Sc2ncccn2)c1", "note": "[SK-04-73]", "values": [{"measurement": "MIC S. aureus ATCC 29213", "setting": "[1]; Table 6", "result": 512, "unit": "µg/mL"}, {"measurement": "MIC S. aureus MC-1", "setting": "[2]; Table 6", "result": ">512", "unit": "µg/mL"}, {"measurement": "MIC M. smegmatis", "setting": "[3]; Table 6", "result": 64, "unit": "µg/mL"}, {"measurement": "MIC M. avium", "setting": "[4]; Table 6", "result": 512, "unit": "µg/mL"}, {"measurement": "MIC M. chelonae", "setting": "[5]; Table 6", "result": 256, "unit": "µg/mL"}, {"measurement": "MIC M. fortuitum", "setting": "[6]; Table 6", "result": 256, "unit": "µg/mL"}, {"measurement": "MIC M. intracellulare", "setting": "[7]; Table 6", "result": 512, "unit": "µg/mL"}, {"measurement": "MIC M. kansasii", "setting": "[8]; Table 6", "result": 128, "unit": "µg/mL"}]}
{"smiles": "CCOC(=O)/C=C\\Sc1ccc(C(C)(C)C)cc1", "note": "[SK-04-57]", "values": [{"measurement": "MIC", "setting": "[1]; [14]", "result": "> 512", "unit": "µg/mL"}, {"measurement": "MIC", "setting": "[2]; read-out: MIC S. aureus MC-1", "result": "> 512", "unit": "µg/mL"}, {"measurement": "MIC", "setting": "[3]; Table 6", "result": 16, "unit": "µg/mL"}, {"measurement": "MIC", "setting": "[4]; Table 6", "result": 64, "unit": "µg/mL"}, {"measurement": "MIC", "setting": "[5]; Table 6", "result": 8, "unit": "µg/mL"}, {"measurement": "MIC", "setting": "[6]; Table 6", "result": 4, "unit": "µg/mL"}, {"measurement": "MIC", "setting": "[7]; Table 6", "result": 128, "unit": "µg/mL"}, {"measurement": "MIC", "setting": "[8]; Table 6", "result": 16, "unit": "µg/mL"}, {"measurement": "Movement score, 1/100", "setting": "[12]", "result": "+"}, {"measurement": "Movement score, 1/200", "setting": "[12]", "result": "−"}, {"measurement": "Movement score, 1/400", "setting": "[12]", "result": "−"}, {"measurement": "Movement score, 1/800", "setting": "[12]", "result": "−"}, {"measurement": "Movement score, 1/1600", "setting": "[12]", "result": "−"}]}
